Tested on: VRBMP-1 binding to ACE2 on NOK cells
Assay type: cell-based, human

## diminazene aceturate [DIZE]
  Binding of VRBMP-1 to NOK cells after DIZE treatment: significantly reduced binding of VRBMP-1 at all three concentrations in a dose-dependent manner
  Reduction of VRBMP-1 binding, decoy peptides and DIZE each alone: significantly reduced the binding of VRBMP-1 with nearly the same potency
